Marks after values point to notes of the source that are not given here.
Tested on: FaDu human head and neck cancer xenograft
Assay: FaDu human head and neck cancer xenograft model
Format: in vivo, nude mice
Conditions: for Tumor Weight (x ± S.D.) / Tumor Inhibitor Rate / Relative Tumor Volume (x ± S.D.) / T/C / Tumor Volume (x ± S.D.): FaDu xenograft; for Tumor Inhibitor Rate: by tumor weight; for Relative Tumor Volume (x ± S.D.) / T/C / Tumor Volume (x ± S.D.): end of the assay
Description: Tumor cells were cultured in an incubator at 37° C. with 5% CO2 using MEM medium containing 10% inactivated fetal calf serum, 100 U/ml penicillin and 100 μg/ml streptomycin. The tumor cells in logarithmic growth phase were collected, adjusted to an appropriate density and injected subcutaneously into nude mice (0.2 ml per mouse). An xenograft model was established after tumor was formed in the nude mice and passaged in vivo for more than three generations.
The above-mentioned tumor-bearing mice were sacrificed by cervical dislocation. The tumor was taken out and cut into small tumor pieces (about 2 mm×2 mm×2 mm) under sterile conditions. The small tumor pieces were inoculated subcutaneously into nude mice on the right shoulder blade with a trocar. […] The animals in each group were subjected to intragastric administration daily for 14 consecutive days. The day of grouping is assigned as day 0.
Tumor volume is calculated as: volume=0.5×long diameter×short diameter^2. The relative tumor volume (RTV) was calculated based on the measurements as: RTV=Vt/V0, wherein V0 is the tumor volume measured when the animals were grouped to be administrated (i.e., d0), and Vt is the tumor volume when each measurement was taken. Relative tumor proliferation rate T/C was calculated based on relative tumor volume, in which T is the mean value of the relative tumor volume of the treatment group, and C is the mean value of the relative tumor volume of the solvent control group. T/C was calculated as follows: T/C=TRTV/CRTV×100% (TRTV: RTV of the treatment group; CRTV: RTV of the solvent control group) Inhibition rate (%)=(mean tumor weight of the solvent control group−mean tumor weight of the treatment group)/mean tumor weight of the solvent control group×100%. Percentage of body weight change=Wn/W0×100% (Wn: mean body weight of experimental animals in each group at day n, W0: mean body weight of experimental animals in each group at day 0).
One-Way ANOVA test was conducted in SPSS13.0, performing statistical analysis between groups.

[1] = FaDu xenograft nude mice, 20, 40 and 80 mg/kg intragastric daily for 14 days
[2] = 20 mg/kg intragastric daily for 14 days
[3] = 40 mg/kg intragastric daily for 14 days
[4] = 80 mg/kg intragastric daily for 14 days

COCCOc1cc2ncnc(Nc3ccc(F)c(Cl)c3)c2cc1NC(=O)C=C1CCN(CCOC)CC1.CS(=O)(=O)O [Compound 3, N-[4-(3-chloro-4-fluorophenylamino)-7-(2-methoxyethoxy)quinazolin-6-yl]-2-[1-(2-methoxyethyl)piperidin-4-ylidene]acetamide dimethylsulfonate]
Body weights of the experimental animals [1]: not significantly reduced | abnormality in the experimental animals [1]: no significant abnormality was observed | Tumor Weight (x ± S.D.) [2]: 0.684 ± 0.192 g | Tumor Inhibitor Rate [2]: 37.5% | Relative Tumor Volume (x ± S.D.) [2]: 6.1 ± 1.3 | T/C [2]: 61.4% | Tumor Volume (x ± S.D.) [2]: 703.3 ± 144.2** mm^3 | Tumor Weight (x ± S.D.) [3]: 0.522 ± 0.427 g | Tumor Inhibitor Rate [3]: 52.4% | Relative Tumor Volume (x ± S.D.) [3]: 5.5 ± 1.9 | T/C [3]: 54.7% | Tumor Volume (x ± S.D.) [3]: 602.9 ± 204.4*** mm^3 | Tumor Weight (x ± S.D.) [4]: 0.260 ± 0.128 g | Tumor Inhibitor Rate [4]: 76.2% | Relative Tumor Volume (x ± S.D.) [4]: 3.2 ± 1.6 | T/C [4]: 31.6% | Tumor Volume (x ± S.D.) [4]: 352.3 ± 157.0*** mm^3
